The results in this text go back to ChEMBL document CHEMBL1201862, “PubChem BioAssay data set” (2004).

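Method: 48-hour compound exposure of cells in 96-well plates, five concentrations, linear interpolation of endpoints. GI50 is the concentration that inhibits growth by half.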 The source made the active and inactive calls. Rule as the data show it: active = GI50 up to about 1.1 µM and inactive = higher.

Among the test systems are 786-0; DU-145; HCT-15; HL-60; HT-29; M14; NCI-H226; NCI-H460; NCI-H522; OVCAR-3; OVCAR-4; OVCAR-5; OVCAR-8; SF-268; SR; U-251; UACC-62; UO-31.
Common to all, as to test: NCI tumour cell line growth inhibition, 48 h

With `COC(=O)c1cc(O)nc(O)n1`, the GI50 is > 100 µM (inactive) in the assay on 786-0; > 100 µM (inactive) in the assay on DU-145; greater than 100 µM in the assay on HCT-15; > 100 µM (inactive) in the assay with HL-60; > 100 µM (inactive) in the assay with HT-29; > 100 µM (inactive) in the assay with M14. For the same compound, the GI50 with NCI-H226, in the assay with NCI-H460, with NCI-H522, in the assay with OVCAR-3, in the assay with OVCAR-4 and with OVCAR-5 was > 100 µM (inactive) each time. Also, the GI50 with OVCAR-8, with SF-268, in the assay on SR, in the assay on U-251, in the assay with UACC-62 and in the assay on UO-31 was > 100 µM (inactive) in each case.

For the compound `c1c[nH]c(CN2CCN(Cc3ncc[nH]3)CC2)n1`, the GI50 is > 100 µM (inactive) with 786-0; > 100 µM (inactive) in the assay on DU-145; greater than 100 µM in the assay with HCT-15; > 100 µM (inactive) with HL-60; > 100 µM (inactive) with HT-29; > 100 µM (inactive) in the assay with M14. The GI50 in the assay on NCI-H226, with NCI-H460, in the assay on NCI-H522, with OVCAR-3, with OVCAR-4 and with OVCAR-5 was > 100 µM (inactive) in each case. Also, the GI50 in the assay with OVCAR-8, in the assay with SF-268, in the assay on SR, in the assay on U-251, with UACC-62 and in the assay with UO-31 was > 100 µM (inactive) each time.

On to `CC(C)CC1c2[nH]c3ccccc3c2C[C@H]2C(=O)NC(CCC(=O)OC(C)(C)C)C(=O)N12` (stereo partly specified), for which the GI50 in the assay on 786-0 was 43 µM (inactive); in the assay on DU-145, 47.1 µM (inactive); in the assay with HCT-15, 33.8 µM; with HL-60, 28.1 µM (inactive); in the assay on HT-29, 21.1 µM (inactive); in the assay with M14, 36.7 µM (inactive). The GI50 in the assay with NCI-H226 was 49.7 µM (inactive); with NCI-H522, 25.2 µM (inactive); in the assay with OVCAR-3 it was 16.8 µM (inactive); in the assay with OVCAR-4 it was 37.3 µM (inactive); in the assay on OVCAR-5, 34.3 µM (inactive); with OVCAR-8 it was 39.3 µM (inactive). Also, the GI50 in the assay on SF-268 was 27.4 µM (inactive); in the assay on SR, 22 µM (inactive); in the assay with U-251, 29 µM (inactive); in the assay with UACC-62, 30.5 µM (inactive); in the assay on UO-31 it was 33 µM (inactive).

`N/C(=N\c1ccc(Cl)cc1)NS(=O)(=O)c1ccc(S(=O)(=O)c2ccccc2)s1`: the GI50 in the assay on 786-0 is 19.9 µM (inactive); in the assay on DU-145, 21.5 µM (inactive); with HCT-15, 17.5 µM; with HL-60, 22.3 µM (inactive); with HT-29, 21.7 µM (inactive); in the assay on M14 it was 17.9 µM (inactive). Besides, the GI50 in the assay with NCI-H226 is 26.4 µM (inactive); in the assay with NCI-H460 it was 17.3 µM (inactive); with NCI-H522, 14.5 µM (inactive); in the assay on OVCAR-3 it was 25.4 µM (inactive); with OVCAR-4 it was 17.5 µM (inactive); in the assay with OVCAR-5, 31.9 µM (inactive). Moreover, the GI50 is 20 µM (inactive) with OVCAR-8; 19.4 µM (inactive) in the assay with SF-268; 24.8 µM (inactive) in the assay on SR; 14.4 µM (inactive) with U-251; 11.3 µM (inactive) in the assay on UACC-62; 16.6 µM (inactive) in the assay on UO-31.
